In this assay the test system is IGF-1. In words: Test Example 3: action of various capsaicinoids on mouse IGF-1 (test solutions on back skin). The format is in vivo.
Where [1] appears, read: test solution containing 0.01% by mass in ethanol/physiological saline, 0.2 mL/cm^2 on back skin, 30 minutes after application, p<0.01 (FIG. 3, FIG. 4).

Experimental findings from patent US20060100287A1, “Insulin-like growth factor-1 secretagogue” (priority 2004, published 2006) are described below.

As to `COc1cc(COC(=O)CCCCCC(C)C)ccc1O` [nordihydrocapsiate], under setting [1], the “amount of IGF-1 in the mouse back skin compared to the base preparation” value (shortened to “amount … compared to the base preparation”) is given as “significantly elevated”.

In the case of `COc1cc(CNC(=O)CCCC/C=C/C(C)C)ccc1O` [capsaicin, (6E)-N-[(4-hydroxy-3-methoxyphenyl)methyl]-8-methyl-6-nonenamide, reference compound], the “amount … compared to the base preparation” value under setting [1] is listed as “significantly elevated”.

For `COc1cc(COC(=O)CCCC/C=C/C(C)C)ccc1O` [capsiate], the “amount … compared to the base preparation” value under setting [1] is on record as “significantly elevated”.

As for `COc1cc(CNC(=O)CCCCCC(C)C)ccc1O` [nordihydrocapsaicin], the “amount … compared to the base preparation” value (mouse, in vivo) is on record as “significantly elevated”.

With `CCCCCCCCC(=O)NCc1ccc(O)c(OC)c1` [nonylic vanillylamide], where the note is “mouse, in vivo”, the “amount … compared to the base preparation” value is recorded as “significantly elevated”.

As to `COc1cc(COC(=O)CCCCCCC(C)C)ccc1O` [dihydrocapsiate], the “amount … compared to the base preparation” value under setting [1] is “significantly elevated”.

`COc1cc(CNC(=O)CCCCCCC(C)C)ccc1O` [dihydrocapsaicin]: the “amount … compared to the base preparation” value under setting [1] was “significantly elevated”.
